{"source": "paper PMC4148842", "about": "(The Journal of Biological Chemistry, 2014)", "key": {"MMP-13 [1]": {"biological_target": "T1, MMP-13 (Homo sapiens, UniProt P45452)", "test": "MMP-13 Toolkit SPBA, pro and active forms, wild type and E204A taken together", "type": "binding", "conditions": "for binding of MMP-13 preparations: all or several MMP-13 preparations, SPBA", "text": "(§1) Recombinant proMMP-13 was expressed and purified as previously described ([18]). […] ProMMP-13(E204A) was expressed in Escherichia coli BL21(DE3), refolded, purified, and activated essentially as described for proMMP-1(E200A) ([19], [20]).\n(§2) Unless stated otherwise, all peptides were triple-helical, a structure maintained by the flanking sequences, GPC(GPP)5- and -(GPP)5-GPC-amide, at their N and C terminus, respectively. For simplicity, peptides are referred to by their specific guest sequence. A negative control peptide, (GPC-(GPP)10-GPC-amide) is referred to as GPP10.\n(§3) Immulon 2 HB 96-well plates (Nunc, Langenselbold, Germany) were coated with Collagen Toolkit or other peptides, fibrillar or monomeric collagen at a saturating concentration (10 μg/ml in 0.01 M acetic acid) overnight at 4 °C. Fibrous bovine type I collagen was a gift from Ethicon Corporation (Somerville, NJ). Monomeric collagen was obtained from Devro (Bathurst, Australia). All further incubations were performed at 24 °C for 1 h unless otherwise stated. The wells were washed three times with adhesion buffer (1 mg/ml BSA in Tris-buffered saline (TBS) containing 0.1% (v/v) Tween-20) between each incubation step. The wells were blocked with 50 mg/ml BSA in TBS prior to the addition of MMP at a concentration of 83 nM (unless otherwise stated) in adhesion buffer. […] Rabbit HRP-linked anti-GST (GE Healthcare; dilution 1:10,000) was used to detect GST-Hpx. […] Binding curves were fitted using Prism 5.0 software (GraphPad, San Diego), allowing total binding (Bmax) and equilibrium dissociation constant (KD) to be determined."}, "MMP-13 [2]": {"biological_target": "T1, MMP-13", "test": "MMP-13 Toolkit solid-phase binding assay (SPBA), wild type active MMP-13", "set-up": "made in house; host or cells: mouse myeloma cells", "conditions": "1 h, 24 °C; for binding: wild type active MMP-13, 83 nM, coating 10 μg/ml", "text": "as §1, §2\nas §3, with “Monomeric collagen was obtained from Devro (Bathurst, Australia).” left out, “step.” for “step. The wells were blocked with 50 mg/ml BSA in TBS prior to the addition of MMP at a concentration of 83 nM (unless otherwise stated) in adhesion buffer.”\nFIGURE 1. […] For reference, collagen D-periods corresponding to these peptides are shown as gray bars below, and the collagenase cleavage site indicated by an arrow."}, "MMP-13 GST-Hpx domain": {"tested_on": "MMP-13 GST-Hpx domain", "test": "MMP-13 Toolkit SPBA, isolated GST-Hpx domain", "type": "binding", "conditions": "Hpx 83 nM, anti-GST detection, 1 h, 24 °C", "text": "as §1, §2\n(§4) Immulon 2 HB 96-well plates (Nunc, Langenselbold, Germany) were coated with Collagen Toolkit or other peptides, fibrillar or monomeric collagen at a saturating concentration (10 μg/ml in 0.01 M acetic acid) overnight at 4 °C. Fibrous bovine type I collagen was a gift from Ethicon Corporation (Somerville, NJ). Monomeric collagen was obtained from Devro (Bathurst, Australia). All further incubations were performed at 24 °C for 1 h unless otherwise stated. The wells were washed three times with adhesion buffer (1 mg/ml BSA in Tris-buffered saline (TBS) containing 0.1% (v/v) Tween-20) between each incubation step. […] Binding curves were fitted using Prism 5.0 software (GraphPad, San Diego), allowing total binding (Bmax) and equilibrium dissociation constant (KD) to be determined. […]"}, "MMP-13(E204A)": {"biological_target": "T2, MMP-13(E204A) (Homo sapiens, UniProt P45452, E223A)", "T2 construct": "made in house; host or cells: Escherichia coli BL21(DE3)", "test": "MMP-13 Toolkit SPBA, active-site mutant MMP-13(E204A)", "type": "binding", "conditions": "83 nM, coating 10 μg/ml, 1 h, 24 °C", "text": "as §1, §2, §4"}, "[3]": {"tested_on": "Cat domain of MMP-13 (Δ249–451)", "test": "MMP-13 Toolkit SPBA, isolated Cat domain", "type": "binding", "conditions": "data not shown for Toolkit II", "experimental": "as §1\nImmulon 2 HB 96-well plates (Nunc, Langenselbold, Germany) were coated with Collagen Toolkit or other peptides, fibrillar or monomeric collagen at a saturating concentration (10 μg/ml in 0.01 M acetic acid) overnight at 4 °C. Fibrous bovine type I collagen was a gift from Ethicon Corporation (Somerville, NJ). Monomeric collagen was obtained from Devro (Bathurst, Australia). All further incubations were performed at 24 °C for 1 h unless otherwise stated. The wells were washed three times with adhesion buffer (1 mg/ml BSA in Tris-buffered saline (TBS) containing 0.1% (v/v) Tween-20) between each incubation step. […] Binding curves were fitted using Prism 5.0 software (GraphPad, San Diego), allowing total binding (Bmax) and equilibrium dissociation constant (KD) to be determined.\nProteins were C-terminally biotinylated using an EZ-Link® Micro Sulfo-NHS-Biotinylation Kit (Pierce) according to the manufacturer's instructions. Successful biotinylation was detected via Western blotting using an ultrasensitive Streptavidin-Peroxidase Polymer (Sigma)."}, "proMMP-9": {"tested_on": "proMMP-9", "conditions": "ref [32]; cited from earlier work", "text": "(§5) How can MMP-13 avoid this constraint? […] The effect is to move the collagen-binding S10′ pocket of M ..."}, "proMMP-3": {"tested_on": "proMMP-3", "conditions": "ref [32]; cited from earlier work", "text": "as §5"}, "proMMP-1": {"tested_on": "proMMP-1", "conditions": "ref [7], [31]; cited from earlier work", "text": "as §5"}, "MMP-13 [4]": {"tested_on": "MMP-13", "conditions": "cited from earlier work", "text": "Collagenolytic MMPs are members of the zinc-dependent peptidase family whose tightly regulated proteolytic activities play a pivotal role in extracellular matrix homeostasis, cell migration and wound healing. […] The Cat and Hpx are thought to cooperate to recognize and bind to the cleavage site, in collagen D-period 4 (D4), three-quarters of the way along the tropocollagen molecule ([6], [7]). Binding of the Hpx is considered to facilitate local relaxation of the helix, allowing the Cat d ... || Comparison of the collagenase cleavage sites of the various fibrillar collagens with the sequences of the MMP-13-binding peptides provides a basis for their relative recognition and subsequent cleavage."}}, "note": "“Also recorded” adds a separate entry of the source.", "data": [{"substance": "GCPP(GPPP)2GGPPPG-II-44 guest sequence -P(GPPP)2GGPPPGCPG-amide [linear peptide equivalent to II-44]", "values": [{"measurement": "binding of MMP-13 preparations", "setting": "MMP-13 [1]", "value": "negligible binding"}, {"measurement": "binding", "setting": "MMP-13 [2]", "value": "unable to bind"}]}, {"substance": "GFOGLOGPS [44B, peptide containing only the missing triplets, GFOGLOGPS]", "values": [{"measurement": "binding of MMP-13 preparations", "setting": "MMP-13 [1]", "value": "supported no binding"}]}, {"substance": "GPQG∼LAGQRGIVGLOGQRGER [44J, 21-residue peptide, P4 to P17′, parent of the Ala-scan]", "values": [{"measurement": "binding of MMP-13 preparations", "setting": "MMP-13 [1]", "value": "MMP-13(E204A) binding most strongly (A450 ∼0.8), then proMMP-13, then proMMP-13(E204A), then active MMP-13, and lastly the Hpx domain alone"}, {"measurement": "A450 (adhesion)", "setting": "MMP-13 GST-Hpx domain; coating 10 μg/ml, mean of four experiments", "value": "~0.4"}, {"measurement": "A450 (adhesion)", "setting": "MMP-13(E204A); mean of four experiments", "value": "~0.8"}]}, {"substance": "collagen", "values": [{"measurement": "binding", "setting": "[3]", "value": "able to recognize collagen; also recorded: bound weakly"}, {"measurement": "binding of MMP-13 preparations", "setting": "MMP-13 [1]", "value": "support firm adhesion of MMP-13 in both its active and pro- forms"}, {"measurement": "binding of proMMP-9", "setting": "proMMP-9", "value": "can bind collagen"}, {"measurement": "binding of proMMP-3", "setting": "proMMP-3", "value": "can bind collagen"}, {"measurement": "binding of proMMP-1", "setting": "proMMP-1", "value": "did not bind"}]}, {"substance": "collagen II: preferred substrate for MMP-13", "values": [{"measurement": "relative cleavage rate by MMP-13", "setting": "MMP-13 [4]; collagen II compared with collagens I and III, ref [3]", "value": "five times faster than collagen I; also recorded: six times faster than collagen III"}, {"measurement": "cleavage site of MMP-13", "setting": "MMP-13 [4]; position within collagen II helical domain, ref [11], [12]", "value": "Gly^775–Leu^776; also recorded: Gly^778–Gln^779"}]}, {"substance": "fibrillar type I collagen: Fibrous bovine type I collagen, a gift from Ethicon Corporation", "values": [{"measurement": "binding", "setting": "[3]", "value": "bound fibrillar collagen I, albeit weakly"}, {"measurement": "Kd", "setting": "MMP-13 [1]; fibrillar collagen, MMP-13 preparations overall", "value": "~40", "unit": "nM"}, {"measurement": "binding", "setting": "MMP-13 GST-Hpx domain", "value": "bound fibrillar collagen I"}, {"measurement": "A450 (adhesion)", "setting": "MMP-13 [2]; wild type MMP-13 (active or pro form not stated for the numbers), 83 nM, plates coated 10 μg/ml, mean of four experiments", "value": "≥ 1.0"}]}, {"substance": "monomeric type I collagen: Monomeric collagen obtained from Devro (Bathurst, Australia)", "values": [{"measurement": "binding", "setting": "MMP-13 [2]", "value": "much lower binding"}, {"measurement": "binding", "setting": "MMP-13(E204A)", "value": "much lower binding"}]}]}
